Patent US20100173780A1, “POLYPHENOL-CONTENT-[…] FOR PLANT” (COSMO OIL CO., LTD., priority 2006, published 2010)

Columns and labels:
green pepper = assay: Amount of polyphenol in green pepper after ALA treatment (HPLC); type: in vivo, green pepper (Solanaceae, genus cayenne, race Miogi)
Description: (§1) Two containers (length: 0.75 m, width 0.5 m) were provided and soil was placed in each of them. A Chemical fertilizer (nitrogen content:phosphorus content:potassium content=15:15:15 as mass ratio) was used as a base fertilizer and young plants of green pepper (Solanaceae, genus cayenne, race Miogi) were grown for two months according to a conventional method. Water was applied to the young plants once a day by means of a sprinkling can. Prior to one month from harvest, treatment was conducted once a week with 50 mL per container of each aqueous solution containing 0 ppm (control) or 1 ppm of 5-aminolevulinic acid hydrochloride to which a spreading agent, Approach BI (manufactured by Kao Corporation) had been added in a ratio of 0.1% by mass. After harvest, 3 g of green pepper was finely cut with scissors and a kitchen knife and then homogenized after addition of water. The homogenized one was diluted up to 6 mL with distilled water (stock solution) and the stock solution was divided into three even portions and used in the following extraction methods (1) to (3). (1) Three mL of ethyl acetate was added to 2 mL of the stock solution and the resultant one was centrifuged at 3000 rpm for 10 minutes. The supernatant was transferred to a spit tube and was evaporated to dryness with nitrogen gas while the tube was immersed in a warm bath at about 60° C. Thereto were added 200 μL of methanol and 100 μL of distilled water, thereby the volume being made 300 μL. (2) Two mL of methanol was added to 2 mL of the stock solution and the resultant one was centrifuged at 3000 rpm for 10 minutes. The supernatant was transferred to a spit tube and was evaporated to dryness with nitrogen gas while the tube was immersed in a warm bath at about 60° C. Thereto were added 200 μL of methanol and 100 μL of distilled water, thereby the volume being made 300 μL. (3) One mL of 0.1N hydrochloric acid was added to 2 mL of the stock solution and the resultant one was transferred to a plastic tube and kept in a drive-lock bath at 96.5° C. for 1 hour to effect hydrolysis. Five mL of ethyl acetate was added thereto and the resultant one was centrifuged at 3000 rpm for 10 minutes. The supernatant was transferred to a spit tube and was evaporated to dryness with nitrogen gas while the tube was immersed in a warm bath at about 60° C. Thereto were added 200 μL of methanol and 100 μL of distilled water, thereby the volume being made 300 μL. The samples from (1) to (3) were measured by high-performance liquid chromatography (HPLC) (analytical conditions: the measurement was performed at a flow rate of 1.0 mL/min at a column temperature of 40° C. using a wavelength of 350 nm, using Liquid A (80% by volume of methanol/5% by volume of acetic acid) or Liquid B (10% by volume of methanol/5% by volume of acetic acid) as an eluent, and using a column of Hichrom5C18, T898, 4.6 mm×[…] (manufactured by LLOYD′S REGISTER QUALITY COMPANY) and each concentration was calculated based on standard solutions. In Table 1, the most highly extracted value was cited among the results measured with each of the extraction methods (1) to (3). Moreover, the sum of individual concentration of polyphenol used in this time was regarded as the total amount of polyphenol.

pear = assay: Amount of polyphenol in pear after ALA treatment (HPLC); type: in vivo, pear (Rosaceae, genus pear, race Kosui); settings: 3 ppm
Description: as §1
Prior to 150 days from harvest, treatment to pear
([…], genus pear, race Kosui) grown in a production farm field was conducted once a fortnight with a spraying amount of 300 L/tan of each aqueous solution containing 0 ppm (control) or 3 ppm of 5-aminolevulinic acid hydrochloride to which a spreading agent, Approach BI (manufactured by Kao Corporation) had been added in a ratio of 0.1% by mass. After harvest, the content of polyphenol was analyzed by HPLC in the same manner as in Example 1.

green soybean = assay: Amount of polyphenol in green soybean after ALA treatment (HPLC); type: in vivo, green soybean (Lagminosae, genus soybean, race Hakusan); settings: 1 ppm, 100 L/tan once a fortnight after flowering
Description: as §1
(§2) Prior to 210 days from harvest, treatment to green soybean (Lagminosae, genus soybean, race Hakusan) grown in a production farm field was conducted once a fortnight after flowering with a spraying amount of 100 L/tan of each aqueous solution containing 0 ppm (control) or 1 ppm of 5-aminolevulinic acid hydrochloride. After harvest, the content of polyphenol was analyzed by HPLC in the same manner as in Example 1.

tea = assay: Amount of polyphenol in tealeaf after ALA treatment (HPLC); type: in vivo, tea (Camelliaceae, genus camellia, race Yabukita); settings: 3 ppm, 100 L/tan once a month from 210 days before harvest, HPLC
Description: as §1
as §2, with “to tea (Camelliaceae,” for “to green soybean (Lagminosae,”, “genus camellia,” for “genus soybean,”, “race Yabukita)” for “race Hakusan)”, “a month” for “a fortnight after flowering”, “or 3” for “or 1”

[1] = 1 ppm, 50 mL per container once a week from one month before harvest, HPLC, highest of extraction methods (1)-(3)
[2] = 300 L/tan once a fortnight from 150 days before harvest, HPLC

Q: Which results are given for `Cl.NCC(=O)CCC(=O)O` [ALA, 5-aminolevulinic acid hydrochloride]?
A: Total amount of polyphenol in green pepper (green pepper; 1 ppm once a week from one month before harvest, sum of the individual polyphenol concentrations): 48824 ng/g; ALA/control ratio of total amount of polyphenol in green pepper (green pepper; 1 ppm once a week from one month before harvest, versus 0 ppm control): 9.4; Apigenin amount in green pepper (green pepper; [1]): 0 ng/g; Caffeic acid amount in green pepper (green pepper; [1]): 276 ng/g; Chlorogenic acid amount in green pepper (green pepper; [1]): 4856 ng/g; Ferulic acid amount in green pepper (green pepper; [1]): 5680 ng/g; Hesperetin amount in green pepper (green pepper; [1]): 236 ng/g; Isorhamnetin amount in green pepper (green pepper; [1]): 1849 ng/g; Kaempferol amount in green pepper (green pepper; [1]): 668 ng/g; Luteolin amount in green pepper (green pepper; [1]): 644 ng/g; Quercetin amount in green pepper (green pepper; [1]): 28919 ng/g; Rutin amount in green pepper (green pepper; [1]): 5696 ng/g; Apigenin amount in pear (pear; [2]): 95 ng/g; Caffeic acid amount in pear (pear; [2]): 8400 ng/g; Chlorogenic acid amount in pear (pear; [2]): 1819 ng/g; Ferulic acid amount in pear (pear; [2]): 12456 ng/g; Hesperetin amount in pear (pear; [2]): 81 ng/g; Isorhamnetin amount in pear (pear; [2]): 567 ng/g; Kaempferol amount in pear (pear; [2]): 18 ng/g; Luteolin amount in pear (pear; [2]): 61 ng/g; Quercetin amount in pear (pear; [2]): 111 ng/g; Rutin amount in pear (pear; [2]): 1595 ng/g; Total amount of polyphenol in pear (pear; 300 L/tan once a fortnight from 150 days before harvest, sum of the individual polyphenols): 25202 ng/g; ALA/control ratio of total amount of polyphenol in pear (pear; 300 L/tan once a fortnight, versus 0 ppm control): 2.3; Apigenin amount in green soybean (green soybean; HPLC): 11 ng/g; Caffeic acid amount in green soybean (green soybean; HPLC): 0 ng/g; Chlorogenic acid amount in green soybean (green soybean; HPLC): 17 ng/g; Ferulic acid amount in green soybean (green soybean; HPLC): 3963 ng/g; Hesperetin amount in green soybean (green soybean; HPLC): 1841 ng/g; Isorhamnetin amount in green soybean (green soybean; HPLC): 0 ng/g; Kaempferol amount in green soybean (green soybean; HPLC): 0 ng/g; Luteolin amount in green soybean (green soybean; HPLC): 19 ng/g; Quercetin amount in green soybean (green soybean; HPLC): 261 ng/g; Rutin amount in green soybean (green soybean; HPLC): 1032 ng/g; Total amount of polyphenol in green soybean (green soybean; sum of the individual polyphenols): 7143 ng/g; ALA/control ratio of total amount of polyphenol in green soybean (green soybean; versus 0 ppm control): 1.4; Apigenin amount in tealeaf (tea): 915 ng/g; Caffeic acid amount in tealeaf (tea): 0 ng/g; Chlorogenic acid amount in tealeaf (tea): 3474 ng/g; Ferulic acid amount in tealeaf (tea): 17172 ng/g; Hesperetin amount in tealeaf (tea): 25887 ng/g; Isorhamnetin amount in tealeaf (tea): 3881 ng/g
